Values after ≈ are worked out from the molar mass of the structure shown.
Columns and labels:
Format in all cases: functional
Details in all cases: read-out: ED50 (the source's name)
A549 = assay: Cytotoxicity against human A549 cells
SK-OV-3 = assay: Cytotoxicity against human SKOV3 cells
SK-MEL-2 = assay: Cytotoxicity against human SK-MEL-2 cells
HCT-15 = assay: Cytotoxicity against human HCT15 cells
XF498 = assay: Cytotoxicity against human XF498 cells

| SMILES | EC50 (A549) [µg/mL] | EC50 (SK-OV-3) [µg/mL] | EC50 (SK-MEL-2) [µg/mL] | EC50 (HCT-15) [µg/mL] | EC50 (XF498) [µg/mL] |
| --- | --- | --- | --- | --- | --- |
| CC(/C=C/[C@@H](C)[C@H]1C[C@@H](O)[C@@H]2[C@]1(C)CC[C@@H]1[C@@]3(C)CC[C@H](O)[C@H](O)[C@@H]3[C@@H](O)C[C@]12O)CO (stereo not given in full) | > 30 | > 30 | > 30 | > 30 | > 30 |
| CO[C@H]1[C@H](O[C@H]2[C@H](O[C@@H](CC[C@@H](C)[C@H]3C[C@@H](O)[C@H]4[C@@H]5C[C@H](O)[C@H]6[C@@H](O)[C@@H](O)CC[C@]6(C)[C@H]5CC[C@@]43C)C(C)C)O[C@H](CO)[C@@H]2O)OC[C@@H](O)[C@@H]1O [CERTONARDOSIDE H3] | 3.65 (≈ 4.99 µM) | 2.8 (≈ 3.83 µM) | 0.82 (≈ 1.12 µM) | 7.2 (≈ 9.85 µM) | 0.52 (≈ 0.711 µM) |
| CC(C)[C@H](CC[C@@H](C)[C@H]1C[C@@H](O)[C@H]2[C@@H]3C[C@H](O)[C@H]4[C@@H](O)[C@@H](O)CC[C@]4(C)[C@H]3CC[C@@]21C)O[C@@H]1O[C@H](CO)[C@H](O)[C@H]1O [CERTONARDOSIDE H4] | > 30 | > 30 | 8.3 (≈ 14.2 µM) | > 30 | > 30 |
| C[C@H](CO)CCC[C@@H](C)[C@H]1C[C@@H](O)[C@@H]2[C@]1(C)CC[C@@H]1[C@@]3(C)CC[C@H](O)[C@H](O)[C@@H]3[C@@H](O)C[C@]12O [CERTONARDOSTEROL A3] | 11.7 (≈ 25 µM) | 16.2 (≈ 34.6 µM) | 5.24 (≈ 11.2 µM) | 20.3 (≈ 43.3 µM) | 18.6 (≈ 39.7 µM) |
| CC(/C=C/[C@@H](C)[C@H]1C[C@@H](O)[C@@H]2[C@]1(C)CC[C@@H]1[C@@]3(C)CC[C@H](O)[C@H](O)[C@@H]3[C@@H](O)C[C@]12O)[C@@H](C)O (stereo not given in full) [CERTONARDOSTEROL A4] | 17 (≈ 36.4 µM) | 16.4 (≈ 35.1 µM) | 5.7 (≈ 12.2 µM) | 19.3 (≈ 41.4 µM) | 28.4 (≈ 60.9 µM) |
| CC(/C=C/[C@@H](C)[C@H]1C[C@@H](O)[C@H]2[C@@H]3C[C@H](O)[C@H]4[C@@H](O)[C@@H](O)CC[C@]4(C)[C@H]3CC[C@@]21C)CO (stereo not given in full) [CERTONARDOSTEROL B3] | 12.5 (≈ 28.6 µM) | 12.1 (≈ 27.7 µM) | 7.13 (≈ 16.3 µM) | 10.4 (≈ 23.8 µM) | 14.7 (≈ 33.7 µM) |
| CC(C)[C@](O)(CO)CC[C@@H](C)[C@H]1C[C@@H](O)[C@H]2[C@@H]3C[C@H](O)[C@H]4[C@@H](O)[C@@H](O)CC[C@]4(C)[C@H]3CC[C@@]21C [CERTONARDOSTEROL B4] | > 30 | 36.6 (≈ 75.8 µM) | 7.5 (≈ 15.5 µM) | > 30 | > 30 |
| C=C(CC[C@@H](C)[C@H]1CC(=O)[C@@H]2[C@]1(C)CC[C@@H]1[C@@]3(C)CC[C@H](O)[C@H](O)[C@@H]3[C@@H](O)C[C@]12O)[C@H](C)CO [CERTONARDOSTEROL Q1] | 12 (≈ 25.1 µM) | 10.9 (≈ 22.8 µM) | 5.57 (≈ 11.6 µM) | 11.6 (≈ 24.2 µM) | 4.95 (≈ 10.3 µM) |
| CC(C)[C@@H](O)CC[C@@H](C)[C@H]1CC(=O)[C@@H]2[C@]1(C)CC[C@@H]1[C@@]3(C)CC[C@H](O)[C@H](O)[C@@H]3[C@@H](O)C[C@]12O [CERTONARDOSTEROL Q2] | 6.94 (≈ 14.9 µM) | 6.85 (≈ 14.7 µM) | 4.2 (≈ 9 µM) | 5.82 (≈ 12.5 µM) | 4.1 (≈ 8.79 µM) |
| CC(C)[C@@H](O)CC[C@@H](C)[C@H]1CC(=O)[C@@H]2[C@]1(C)CC[C@@H]1[C@@]3(C)CC[C@H](O)C[C@@H]3[C@@H](O)C[C@]12O [CERTONARDOSTEROL Q3] | 5.43 (≈ 12 µM) | 12.3 (≈ 27.3 µM) | 7.3 (≈ 16.2 µM) | 13.6 (≈ 30.2 µM) | 12.6 (≈ 28 µM) |
| C[C@H](CO)CCC[C@@H](C)[C@H]1CC(=O)C2=C3C[C@H](O)[C@H]4[C@@H](O)[C@@H](O)CC[C@]4(C)[C@H]3CC[C@@]21C [CERTONARDOSTEROL Q4] | 3.8 (≈ 8.47 µM) | 4.1 (≈ 9.14 µM) | 3.4 (≈ 7.58 µM) | 4.2 (≈ 9.36 µM) | 2.9 (≈ 6.46 µM) |
| C=C(CC[C@@H](C)[C@H]1CC(=O)C2=C3C[C@H](O)[C@H]4[C@@H](O)[C@@H](O)CC[C@]4(C)[C@H]3CC[C@@]21C)[C@H](C)CO [CERTONARDOSTEROL Q5] | > 30 | > 30 | > 30 | > 30 | > 30 |
| CC(C)[C@@H](O)CC[C@@H](C)[C@H]1CC(=O)C2=C3C[C@H](O)[C@H]4C[C@@H](O)CC[C@]4(C)[C@H]3CC[C@@]21C [CERTONARDOSTEROL Q6] | 0.43 (≈ 0.994 µM) | 0.22 (≈ 0.509 µM) | 0.17 (≈ 0.393 µM) | 0.48 (≈ 1.11 µM) | 0.12 (≈ 0.277 µM) |
| CC(C)[C@@H](O)CC[C@@H](C)[C@H]1CC(=O)C2=C3C[C@H](O)[C@H]4[C@@H](O)[C@@H](O)CC[C@]4(C)[C@H]3CC[C@@]21C [CERTONARDOSTEROL Q7] | 4.58 (≈ 10.2 µM) | 6.65 (≈ 14.8 µM) | 4.66 (≈ 10.4 µM) | 7.1 (≈ 15.8 µM) | 3.8 (≈ 8.47 µM) |
| COc1cccc2c1C(=O)c1c(O)c3c(c(O)c1C2=O)C[C@@](O)(C(=O)CO)C[C@@H]3O[C@H]1C[C@H](N)[C@H](O)[C@H](C)O1 [DOXORUBICIN] | 0.04 (≈ 0.0736 µM) | 0.12 (≈ 0.221 µM) | 0.05 (≈ 0.092 µM) | 0.18 (≈ 0.331 µM) | 0.12 (≈ 0.221 µM) |
